In patent US20240125678A1, “COMPOUND, CELLULAR VESICLE STAIN, AND METHOD FOR FLUORESCENT STAINING OF CELLULAR VESICLES” (National University Corporation Tokai National Higher …, priority 2021, published 2024):

Assays:
[1] = tested on: incorporation of labeled melanosomes into keratinocyte cells; assay: Inhibition of incorporation of labeled melanosomes into cells; format: cell-based; conditions: inhibitor final concentration 10 μM, 12 hours, melanosomes labeled with Compound 1, excitation 488 nm
Protocol: Incorporation of melanosomes into cells was measured in the presence of a melanosome uptake inhibitor. […] As the melanosome uptake inhibitor, 6-shogaol (192-16161 (Fujifilm Wako)) was used. • (13) After 12 hours, the cells were washed twice with 100 μL of phosphate buffer. • (14) A plate reader (GroMax Multi (Promega)) was used to measure the labeled melanosomes. […]
Comparative Example 4 is the same as Example 29 except that the measurement with the plate reader was performed for absorbance at 450 nm.

[2] = tested on: cellular vesicles of keratinocyte cells (PSVK1); assay: Fluorescent staining of cellular vesicles in keratinocyte cells (PSVK1); format: cell-based, human; conditions: 0.3 μM, excitation 470 nm
Protocol: Compound 1 was used to fluorescently stain cellular vesicles of keratinocyte cells (PSVK1). The procedure is illustrated below. • (1) PSVK1 cells (obtained from National Institute of Biomedical Innovation, Health and Nutrition, Cell Bank) were plated in a glass bottom dish and cultured for 24 hours. […] Note that the measurement was performed with excitation at 470 nm.

[3] = tested on: cellular vesicles of living B16F10 cells; assay: Specificity 1: staining of cellular vesicles of living versus fixed (dead) cells; format: cell-based, mouse; conditions: B16F10, 0.3 μM, mixed fixed (dead) and living cells
[4] = tested on: cellular vesicles of HEK293 cells; assay: Fluorescent staining of cellular vesicles in HEK293 cells; format: cell-based, human; conditions: 0.3 μM, excitation 470 nm
Protocol: Compound 1 was used to fluorescently stain cellular vesicles of HEK293 cells. The procedure is illustrated below. • (1) HEK293A cells (ThermoFisher) were plated in a glass bottom dish and cultured for 24 hours. […] Note that the measurement was performed with excitation at 470 nm.

[5] = tested on: milk exosomes; assay: Calibration curve in exosome detection; conditions: 0.3 μM, milk exosomes 0.1 to 1 ng per well, fetal bovine serum/phosphate buffer
[6] = tested on: milk exosomes; assay: Fluorescent staining of exosomes; conditions: 0.3 μM in phosphate buffer
[7] = tested on: cellular vesicles of B16F10 cells; assay: Specificity 2: comparison with another cellular vesicle staining agent; format: cell-based, mouse; conditions: Compound 1 3 μM without washing, ExoSparkler Mem Dye-Red 1 μL/mL with washing
Protocol: Compound 1 was used for fluorescent staining of intracellular vesicles. The procedure is illustrated below. • (1) 3×10^4 of B16F10 cells were plated in a glass bottom dish and cultured for 24 hours. • (2) Compound 1 was added to the culture medium to have the final concentration of 3 μM. • (3) Measurement was performed by using the fluorescence microscope. Note that the measurement was performed with excitation at 470 nm.
Comparative example 1 is the same as Example 18 except that, instead of Compound 1, 1 μL/mL of ExoSparkler Mem Dye-Red (340-09671 (Dojindo Laboratories)) was added to the culture medium, the culture medium was aspirated off after the addition of ExoSparkler Mem Dye-Red, and a new culture medium was added for washing. Note that the measurement was performed with excitation at 540 nm.

[8] = tested on: labeled milk exosomes in HEK293A cells; assay: Incorporation of labeled exosomes into cells; format: cell-based, human
[9] = tested on: cellular vesicles of mouse malignant melanoma cells B16F10; assay: Fluorescent staining of intracellular vesicles with Compound 1 and anti-CD63 antibody; format: cell-based
[10] = tested on: cellular vesicles of B16F10 cells; assay: Specificity 3: staining in the presence of foreign substances (mouse dung); format: cell-based; conditions: B16F10 cells mixed with mouse dung suspension; Compound 1 0.3 μM; CellMask reagent 1 μL
Protocol: Intracellular vesicles were fluorescently stained by Compound 1 in the presence of foreign substances. The procedure is illustrated below. • (1) 100 mg of mouse dung was collected, and the collected dung was suspended in 10-fold volume (1 mL) of phosphate buffer. • (2) B16F10 cells were detached using trypsin EDTA (NACALAI TESQUE) and collected, and 1×10^4 cells were suspended in 100 μL of phosphate buffer and mixed with 10 μL of the mouse dung suspension of (1) . • (3) The suspension of the cells and the […] was spread on a glass bottom dish, and 300 μM of Compound 1 was added to have the final concentration of 0.3 μM. • (4) Measurement was performed by using the fluorescence microscope. Note that the measurement was performed with excitation at 470 nm.
Comparative example 2 is the same as Example 19 except that, instead of Compound 1, 1 μL of CellMask reagent (C10045 (ThermoFisher)) was added to the suspension of the cells and the dung. Note that the measurement was performed with excitation at 540 nm.

[11] = tested on: cellular vesicles / autophagosomes of B16F10 cells; assay: Detection of autophagosomes using a PIKfyve inhibitor; format: cell-based, mouse; conditions: 3 μM
Protocol: An endosome-derived intracellular vesicle formation inhibitor (PIKfyve inhibitor) was used to detect autophagosomes. The procedure is illustrated below. • (1) 3×10^4 of B16F10 cells were plated in a glass bottom dish and cultured for 24 hours. • (2) Compound 1 was added to have the final concentration of 3 μM. • (3) Measurement was performed by using a fluorescence microscope. Note that the measurement was performed with excitation at 470 nm. • (4) PIKfyve inhibitor (HY-13228 (MedChemExpress)) was then added to the culture medium to have the final concentration of 10 μM, which was cultured for 1 hour. • (5) Measurement was performed by using the fluorescence microscope. • (6) PIKfyve inhibitor-containing culture medium was aspirated off, and washing operation was performed twice with a new culture medium, which was cultured with another new culture medium for 3 hours. • (7) Measurement was performed by using the fluorescence microscope.

SMILES	incorporation of labeled melanosomes into keratinocyte cells [1]	fluorescent staining of cellular vesicle of PSVK1 cell [2]	staining of cellular vesicles of living cells versus dead cells [3]	fluorescent staining of cellular vesicle of HEK293 cell [4]	fluorescence intensity versus amount of added milk exosomes [5]	fluorescence with milk exosomes added ([6]; 10 ng milk exosomes, excitation 302 nm)	fluorescence without milk exosomes (Comparative example 3) ([6]; no milk exosome added)	specificity of fluorescent staining to cellular vesicles [7]	incorporation of exosomes labeled with the compound into cells ([8]; HEK293A cells, 12 hours after addition)	conjugation with exosomes (overlap with ExoSparkler Mem Dye-Red fluorescence) ([8]; milk exosomes stained 5 minutes with 0.3 μM)	overlap of compound fluorescence with fluorescence of the antibody conjugated with CD63 ([9]; 0.3 μM, fixed, anti-CD63 antibody excited at 540 nm)	fluorescent staining of cellular vesicles ([9]; final concentration 0.3 μM, 5 minutes, excitation 470 nm)	specificity of fluorescent staining in the presence of foreign substances [10]	fluorescent staining of PIKfyve dependent cellular vesicles ([11]; before/after PIKfyve inhibitor 10 μM 1 hour)	fluorescent staining of autophagosome membrane ([11]; cultured 3 hours after removal of PIKfyve inhibitor)
CCCCC/C=C/C(=O)CCc1ccc(O)c(OC)c1 [melanosome uptake inhibitor, 6-shogaol]	incorporation of the labeled melanosomes into keratinocyte cells is inhibited														
CN(C)c1ccc(CCCN(C)C2CCc3cc(OCCNc4ccc([N+](=O)[O-])c5nonc45)ccc32)cc1 (stereo not drawn) [Compound 1]		can fluorescently stain	fluorescently stains cellular vesicles of living cells	can fluorescently stain	the fluorescence intensity increased depending on the amount of externally added milk exosomes	conjugates with exosomes that are cellular vesicles and emits fluorescence	no fluorescence was emitted	high specificity to cellular vesicles	are incorporated into cells	specifically conjugates with the exosomes	overlap each other	can fluorescently stain cellular vesicles	can specifically fluorescently stain cellular vesicles	can also fluorescently stain the PIKfyve dependent cellular vesicles	the autophagosome membrane enclosing the melanosome was fluorescently stained
